Data: paper PMC6354011 (Scientific Reports, 2019)
“And” between values parts separate entries of the source, which are not always exact repeats. Equal entries are not always repeated. Where two headings read alike, the source gives them in different places.

Tests used:
[1] = molecular target: T1, equine serum butyrylcholinesterase (BChE, EC 3.1.1.8) (Equus caballus, UniProt P81908); experiment: biochemical; type: biochemical; conditions: for BChE % inhibition: single read
T1 construct: equine serum butyrylcholinesterase (BChE, EC 3.1.1.8); purchased Sigma-Aldrich (USA); host or cells: equine serum
From the text: (§1) Ellman’s colorimetric method with minor modification was employed in the determination of AChE and BChE inhibitory activities. Electric eel acetylcholinesterase (AChE, EC 3.1.1.7), equine serum butyrylcholinesterase (BChE, EC 3.1.1.8), 5,5′-Dithiobis(2-nitrobenzoic acid) (DTNB) and sodium phosphate dibasic (Na2HPO4) were purchased from Sigma-Aldrich (USA). S-butyrylthiocholine chloride (BTCC) from Sigma-Aldrich (Switzerland), acetylthiocholine iodide (ATCI) from Sigma-Aldrich (United Kingdom) and sodium phosphate monobasic (NaH2PO4) from Sigma-Aldrich (Germany) were purchased. […] Ethanol was used to replace the sample as a control in this assay.

[2] = molecular target: T2, Electric eel acetylcholinesterase (AChE, EC 3.1.1.7) (Electrophorus electricus, UniProt O42275); experiment: biochemical
T2 construct: purchased Sigma-Aldrich (USA)
From the text: as §1

[3] = N = 3, unit not given (µg/mL scale), read-out: BChE IC50, Tukey HSD homogeneous subsets (group mean) (converted)
[4] = average of three reads, read-out: BChE IC50 (µM) Average
[5] = average of three reads, read-out: BChE IC50 (µg/mL) Average (converted)
[6] = first read, read-out: BChE IC50 (µM) First read
[7] = first read, read-out: BChE IC50 (µg/mL) First read (converted)
[8] = mean ± SD, n = 3, read-out: IC50 (µM) BChE
[9] = second read, read-out: BChE IC50 (µM) Second read
[10] = second read, read-out: BChE IC50 (µg/mL) Second read (converted)
[11] = third read, read-out: BChE IC50 (µM) Third read
[12] = third read, read-out: BChE IC50 (µg/mL) Third read (converted)
[13] = average of three reads, read-out: AChE IC50 (µM) Average
[14] = average of three reads, read-out: AChE IC50 (µg/mL) Average (converted)
[15] = first read, read-out: AChE IC50 (µM) First read
[16] = mean ± SD, n = 3, read-out: IC50 (µM) AChE
[17] = second read, read-out: AChE IC50 (µM) Second read
[18] = single read, unit not printed at place (µg/mL), read-out: AChE IC50 from regression on raw-data page (converted)
[19] = third read, read-out: AChE IC50 (µM) Third read
[20] = first read, read-out: AChE IC50 (µg/mL) First read (converted)
[21] = second read, read-out: AChE IC50 (µg/mL) Second read (converted)
[22] = third read, read-out: AChE IC50 (µg/mL) Third read (converted)

T1 sequence (P81908 whole entry): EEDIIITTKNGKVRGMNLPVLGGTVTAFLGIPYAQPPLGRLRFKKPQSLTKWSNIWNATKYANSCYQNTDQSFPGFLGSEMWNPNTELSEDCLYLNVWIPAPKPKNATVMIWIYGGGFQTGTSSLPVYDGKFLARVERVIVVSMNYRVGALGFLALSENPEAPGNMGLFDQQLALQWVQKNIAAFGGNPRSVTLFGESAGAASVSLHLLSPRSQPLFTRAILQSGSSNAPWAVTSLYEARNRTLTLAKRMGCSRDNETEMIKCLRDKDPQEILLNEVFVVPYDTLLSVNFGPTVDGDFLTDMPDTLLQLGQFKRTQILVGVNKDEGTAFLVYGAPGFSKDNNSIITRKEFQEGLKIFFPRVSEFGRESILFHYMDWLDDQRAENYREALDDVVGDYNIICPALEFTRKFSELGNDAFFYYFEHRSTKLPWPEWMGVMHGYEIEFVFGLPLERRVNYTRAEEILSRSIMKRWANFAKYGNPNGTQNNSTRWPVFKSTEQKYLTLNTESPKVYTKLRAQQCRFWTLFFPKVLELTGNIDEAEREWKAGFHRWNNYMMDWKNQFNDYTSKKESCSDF
T2 sequence (O42275 24-633): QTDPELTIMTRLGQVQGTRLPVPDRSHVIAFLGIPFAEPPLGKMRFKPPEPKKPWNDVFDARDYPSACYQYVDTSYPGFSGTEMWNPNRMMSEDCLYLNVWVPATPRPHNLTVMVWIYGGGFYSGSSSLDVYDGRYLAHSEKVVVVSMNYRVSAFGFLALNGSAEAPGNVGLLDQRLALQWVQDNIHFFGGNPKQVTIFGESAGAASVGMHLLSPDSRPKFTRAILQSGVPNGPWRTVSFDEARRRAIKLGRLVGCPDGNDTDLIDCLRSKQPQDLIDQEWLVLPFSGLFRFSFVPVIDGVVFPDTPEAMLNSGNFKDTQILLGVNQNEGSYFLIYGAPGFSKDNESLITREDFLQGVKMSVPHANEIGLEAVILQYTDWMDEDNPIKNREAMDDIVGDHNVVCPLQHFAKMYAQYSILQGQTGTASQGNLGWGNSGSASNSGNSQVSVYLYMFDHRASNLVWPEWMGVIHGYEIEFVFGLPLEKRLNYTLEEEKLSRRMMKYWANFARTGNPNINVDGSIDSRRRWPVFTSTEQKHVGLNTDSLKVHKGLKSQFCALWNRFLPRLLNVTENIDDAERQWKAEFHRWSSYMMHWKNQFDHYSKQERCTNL

Row | Compound | IC50 [1, 3] | IC50 [1, 4] | IC50 [1, 5] | BChE % inhibition ([1]; conc 50 (µg/mL)) | BChE % inhibition ([1]; conc 100 (µg/mL)) | BChE % inhibition ([1]; conc 200 (µg/mL)) | IC50 [1, 6] | IC50 [1, 7] | IC50 [1, 8] | IC50 [1, 9] | IC50 [2, 13] | IC50 [2, 14] | AChE % inhibition ([2]; conc 50 (µg/mL), single read) | AChE % inhibition ([2]; conc 100 (µg/mL), single read) | IC50 [2, 15] | IC50 [2, 16] | IC50 [2, 17] | IC50 [2, 19] | IC50 [2, 21] | IC50 [2, 22] | other results
1 | Cc1cccn2cc(C34CC5CC(CC(C5)C3)C4)nc12.O [Compound 2b, 2-(adamantan-1-yl)-8-methylimidazo[1,2-a]pyridine hydrate] | 663 µM | 706 µM | 660 µM | 21.17% and 17.3469% and 18.49% | 28.06% and 27.68% and 30.36% | 49.87% and 45.66% and 43.75% | 681 µM | 637 µM | 706 ± 37 µM | 748 µM | 657 µM | 614 µM | 23.63% and 19.6906% and 32.91% | 27.71% and 37.97% and 34.60% | 721 µM | 657 ± 60 µM | 646 µM | 603 µM | – | – | BChE % inhibition ([1]; conc 300 (µg/mL)): 64.41% and 61.35% and 67.86%; BChE % inhibition ([1]; conc 400 (µg/mL)): 72.45% and 75.51%; BChE % inhibition ([1]; conc 500 (µg/mL)): 80.48% and 74.74% and 73.60%; BChE % inhibition ([1]; conc 600 (µg/mL)): 81.63% and 77.81%; BChE % inhibition ([1]; conc 700 (µg/mL)): 82.40% and 85.08% and 88.14%; IC50 [1, 10]: 700 µM; IC50 [1, 11]: 689 µM; IC50 [1, 12]: 644 µM; IC50 ([2]; N = 3, unit not printed (µg/mL scale), read-out: AChE IC50, Tukey HSD homogeneous subsets (group mean) (converted)): 614 µM; AChE % inhibition ([2]; conc 150 (µg/mL), single read): 38.54% and 49.65% and 47.82%; AChE % inhibition ([2]; conc 200 (µg/mL), single read): 52.60% and 54.71% and 61.74%; AChE % inhibition ([2]; conc 250 (µg/mL), single read): 60.34% and 65.68% and 64.70%; AChE % inhibition ([2]; conc 300 (µg/mL), single read): 75.67% and 76.23% and 73.56%; IC50 [2, 18]: 674 µM and 605 µM and 564 µM
2 | COc1ccc(-c2cn3cccc(C)c3n2)cc1 [Compound 2m, 2-(4-methoxyphenyl)-8-methylimidazo[1,2-a]pyridine] | – | – | – | – | – | – | – | – | > 2000 µM | – | – | – | – | – | – | > 2000 µM | – | – | – | – | –
3 | Clc1ccn2cc(C34CC5CC(CC(C5)C3)C4)nc2c1 [Compound 2e, 2-(adamantan-1-yl)-7-chloroimidazo[1,2-a]pyridine hydrate] | – | – | – | – | – | – | – | – | > 2000 µM | – | – | – | – | – | – | > 2000 µM | – | – | – | – | –
4 | Clc1cccn2cc(-c3ccc(-c4ccccc4)cc3)nc12 [Compound 2i, 2-([1,1′-biphenyl]-4-yl)-8-chloroimidazo[1,2-a]pyridine] | – | – | – | – | – | – | – | – | > 2000 µM | – | 253 µM | 253 µM | 10.30% and 14.24% and 6.35% | 49.40% and 76.34% and 66.48% | 269 µM | 253 ± 25 µM | 225 µM | 266 µM | 224 µM | 265 µM | AChE % inhibition ([2]; conc 75 (µg/mL), single read): 37.90% and 58.60% and 35.60%; AChE % inhibition ([2]; conc 125 (µg/mL), single read): 81.60% and 94.74% and 74.70%; AChE % inhibition ([2]; conc 150 (µg/mL), single read): 92.44% and 89.16% and 84.56%; AChE % inhibition ([2]; conc 200 (µg/mL), single read): 97.37% and 103.61% and 101.97%; IC50 [2, 20]: 268 µM
5 | c1ccc(-c2ccc(-c3cn4ccccc4n3)cc2)cc1 [Compound 2f, 2-([1,1′-biphenyl]-4-yl)imidazo[1,2-a]pyridine] | – | – | – | – | – | – | – | – | > 2000 µM | – | 208 µM | 208 µM | – | – | 228 µM | 208 ± 17 µM | 196 µM | 200 µM | 196 µM | 200 µM | AChE % inhibition ([2]; conc 30 (µg/mL), single read): -1.6523% and -0.07%; AChE % inhibition ([2]; conc 40 (µg/mL), single read): 19.47% and 31.90% and 23.42%; AChE % inhibition ([2]; conc 60 (µg/mL), single read): 46.62% and 65.66% and 72.27%; AChE % inhibition ([2]; conc 70 (µg/mL), single read): 57.54% and 72.63% and 80.68%; AChE % inhibition ([2]; conc 80 (µg/mL), single read): 86.28% and 82.61% and 80.17%; IC50 [2, 20]: 228 µM
6 | Cc1cccn2cc(-c3ccc(Cl)cc3)nc12 [Compound 2n, 2-(4-chlorophenyl)-8-methylimidazo[1,2-a]pyridine] | 737 µM | – | – | – | 42.02% and 27.53% and 43.78% | 56.52% and 54.76% and 59.15% | – | – | 722 ± 48 µM | – | – | – | – | – | – | > 2000 µM | – | – | – | – | BChE % inhibition ([1]; conc 25 (µg/mL)): 10.83% and 20.0586% and 13.47%; BChE % inhibition ([1]; conc 150 (µg/mL)): 45.53% and 45.97% and 50.81%; BChE % inhibition ([1]; conc 250 (µg/mL)): 63.98% and 61.79%
7 | Cc1ccc2nc(-c3ccc(-c4ccccc4)cc3)cn2c1 [Compound 2h, 2-([1,1′-biphenyl]-4-yl)-6-methylimidazo[1,2-a]pyridine] | 484 µM | 496 µM | 496 µM | 28.12% and 20.13% and 20.63% | 19.13% and 27.12% and 17.64% | 83.03% and 81.03% and 75.54% | 485 µM | 484 µM | 496 ± 27 µM | 477 µM | 79.2 µM | 79.1 µM | 92.28% and 79.96% and 93.21% | 99.77% and 84.22% and 106.56% | 83.8 µM | 79 ± 10 µM | 86.3 µM | 67.4 µM | 86.2 µM | 67.3 µM | BChE % inhibition ([1]; conc 150 (µg/mL)): 48.09% and 45.09% and 49.08%; BChE % inhibition ([1]; conc 250 (µg/mL)): 102.50% and 115.97% and 86.02%; IC50 [1, 10]: 476 µM; IC50 [1, 11]: 528 µM; IC50 [1, 12]: 527 µM; AChE % inhibition ([2]; conc 25 (µg/mL), single read): 58.20% and 76.39% and 68.79%; AChE % inhibition ([2]; conc 75 (µg/mL), single read): 92.40% and 88.83% and 96.55%; IC50 [2, 20]: 83.7 µM
8 | Cc1cccn2cc(-c3ccc(Cl)c(Cl)c3)nc12 [Compound 2k, 2-(3,4-dichlorophenyl)-8-methylimidazo[1,2-a]pyridine] | 197 µM | 191 µM | 191 µM | 44.12% and 38.16% and 45.75% | 66.91% and 74.50% | 146.65% and 115.19% | 225 µM | 224 µM | 191 ± 29 µM | 177 µM | – | – | – | – | – | > 2000 µM | – | – | – | – | BChE % inhibition ([1]; conc 150 (µg/mL)): 80.47% and 68.54% and 70.16%; IC50 [1, 10]: 176 µM; IC50 [1, 11]: 172 µM; IC50 [1, 12]: 171 µM
9 | Cc1cccn2cc(-c3ccc(Br)cc3)nc12 [Compound 2o, 2-(4-bromophenyl)-8-methylimidazo[1,2-a]pyridine] | – | – | – | – | – | – | – | – | > 2000 µM | – | – | – | – | – | – | > 2000 µM | – | – | – | – | –
10 | Cc1ccn2cc(C34CC5CC(CC(C5)C3)C4)nc2c1.O [Compound 2c, 2-(adamantan-1-yl)-7-methylimidazo[1,2-a]pyridine hydrate] | – | – | – | – | – | – | – | – | > 2000 µM | – | 270 µM | 252 µM | 41.33% and 47.36% and 42.61% | 56.96% and 48.25% and 49.14% | 293 µM | 270 ± 21 µM | 267 µM | 250 µM | 249 µM | 234 µM | AChE % inhibition ([2]; conc 25 (µg/mL), single read): 20.55% and 27.0778% and 32.32%; AChE % inhibition ([2]; conc 150 (µg/mL), single read): 68.34% and 71.41% and 72.20%; AChE % inhibition ([2]; conc 200 (µg/mL), single read): 71.21% and 69.72% and 76.25%; AChE % inhibition ([2]; conc 250 (µg/mL), single read): 76.15% and 78.73% and 78.33%; IC50 [2, 18]: 274 µM
